Results: US20230322776A1, “NEW ARYL-PYRIDO-PYRIMIDIN-ONE DERIVATIVES” (Hoffmann-La Roche Inc., priority 2020, published 2023)

Assays:
[1] = biological target: BRAF V660E (Homo sapiens, UniProt P15056, V600E); test: KD BRAF V660E (Table 1; no method described); type: binding
[2] = biological target: BRAF (Homo sapiens, UniProt P15056); test: KD BRAF (Table 1; no method described); type: binding
[3] = system: A375 cells (V600E mutated BRAF), ERK phospho-T202/Y204; test: HTRF assay for P-ERK determination in A375 cells (BRAF inhibition); type: cell-based; details: Homo sapiens, A-375, 1 hour drug incubation, DMSO = 100%, 10 μM Dabrafenib = 0%, top concentration 10 μM, read-out: P-ERK_A375: IC50
From the text: (§1) A375 is a cellular cancer model expressing V600E mutated BRAF and HCT116 a cellular cancer model expressing WT BRAF. First generation BRAF inhibitors such as e.g. dabrafenib induce a paradox effect on tumour cells in that they inhibit the growth of V600E mutated BRAF cells (such as e.g. A375), while they activate growth in WT BRAF cells (such as e.g. HCT 116). ERK 1,2 phosphorylation (terminal member of the phosphorylation cascade of the MAPK pathway) is hereafter reported as main readout for the activation status of the MAPK pathway. DMEM no-phenol red medium supplemented with L-glutamine was purchased from (Thermo Fisher Scientific). Fetal bovine serum (FBS) was purchased from VWR. Advanced ERK phospho-T202/Y204 kit—10,000 tests was purchased from Cisbio cat #64AERPEH. A375 (catalog #CRL-1619) and HCT116 (catalog #CCL-247) cells were originally obtained from American type Culture Collection (ATCC) and banked by the Roche repository. 384-Well microplates ultized were purchased from Greiner Bio-One, 384-well, (With Lid, HiBase, Low volume cat 784-080).
(§2) HTRF Assay for P-ERK Determination in A375 or HCT116 Cells
(§3) Prior to the assay, A375 and HCT116 cell lines are maintained in DMEM no-phenol red medium supplemented with 10% fetal bovine serum (FBS). Following compound treatment, P-ERK levels are determined by measuring FRET fluorescence signal induced by selective binding of two antibodies provided in the mentioned kit (Cisbio cat #64AERPEH) on ERK protein when phosphorylated at Thr202/Tyr204. Briefly, 8000 cells/well in 12 μl media/well are plated in the 384-well plate and left overnight in the incubator (at 37° C. with 5% CO2-humidified atmosphere), the following day the plate is treated in duplicate with test compounds, dabrafenib and PLX8394 (the latter two as controls) at the following final drug concentrations: 10 μM, 3 μM, 1 μM, 0.3 μM, 0.1 μM, 0.03 μM, 0.01 μM, 0.003 μM and 0.001 μM. All wells are subjected to DMSO normalization and drug incubation occurs for 1 hour. Then, 4 μl of a 4× lysis buffer supplied with the kit are added to the wells, the plate is then centrifuged for 30 second (3000 rpm) and incubated on a plate shaker for 1 h at rt.
(§4) At the end of the incubation 4 μl/well of advanced P-ERK antibody solution (prepared according to manufacturer's instruction) followed by 4 μl/well of criptate P-ERK antibody solution (prepared according to manufacturer's instruction) (Cisbio cat #64AERPEH) are added to test wells.
(§5) In order to allow proper data normalization, control wells non drug treated reported in the following table are always included in each plate (according to manufacturer's instruction):
(§6) The plate is then centrifuged at 3000 rpm for 30 seconds, sealed to prevent evaporation and incubated overnight in the dark at room temperature. The plate is then analyzed and fluorescence emission value collected through a Pherastast FSX (BMG Labtech) apparatus at […]. The obtained fluorescence values are processed according to the formula Ratio=[…]*10000 then the average of the ratio on the blank is subtracted to all values.
Data are normalized in the case of A375 cells (BRAF inhibition) considering the average of the ratio (blank subtracted) derived by DMSO only treated cells as 100% and by considering the average of the ratio (blank subtracted) derived by 10 μM Dabrafenib treated cells as 0%. Mean of the normalized points are fitted with sigmoidal curve and IC50 values are determined.

[4] = system: HCT116 cells (WT BRAF), ERK phospho-T202/Y204; test: HTRF assay for P-ERK determination in HCT116 cells (BRAF activation, paradox); type: cell-based; details: for EC50: Homo sapiens, HCT-116, HCT116 cells, 1 hour drug incubation, activation relative to maximum Dabrafenib-mediated activation (100%), top concentration 10 μM, read-out: P-ERK_HCT-116: EC50—50PCT; for Fold Selectivity HCT-116 EC50-50/ A375: ratio of P-ERK HCT-116 EC50-50PCT to P-ERK A375 IC50
From the text: as §1, §2, §3, §4, §5, §6
Data are normalized in the case of HCT116 cells (BRAF activation) considering the average of the ratio (blank subtracted) derived by DMSO only treated cells as 0% and by considering the average of the ratio (blank subtracted) derived by Dabrafenib treated cells at the concentration which provides the highest signal as 100%. Individual points are fitted with either sigmoidal or bell shape curves, the percentage of activation compared to maximum Dabrafenib-mediated activation is determined.

BRAF, sequence (P15056 whole entry): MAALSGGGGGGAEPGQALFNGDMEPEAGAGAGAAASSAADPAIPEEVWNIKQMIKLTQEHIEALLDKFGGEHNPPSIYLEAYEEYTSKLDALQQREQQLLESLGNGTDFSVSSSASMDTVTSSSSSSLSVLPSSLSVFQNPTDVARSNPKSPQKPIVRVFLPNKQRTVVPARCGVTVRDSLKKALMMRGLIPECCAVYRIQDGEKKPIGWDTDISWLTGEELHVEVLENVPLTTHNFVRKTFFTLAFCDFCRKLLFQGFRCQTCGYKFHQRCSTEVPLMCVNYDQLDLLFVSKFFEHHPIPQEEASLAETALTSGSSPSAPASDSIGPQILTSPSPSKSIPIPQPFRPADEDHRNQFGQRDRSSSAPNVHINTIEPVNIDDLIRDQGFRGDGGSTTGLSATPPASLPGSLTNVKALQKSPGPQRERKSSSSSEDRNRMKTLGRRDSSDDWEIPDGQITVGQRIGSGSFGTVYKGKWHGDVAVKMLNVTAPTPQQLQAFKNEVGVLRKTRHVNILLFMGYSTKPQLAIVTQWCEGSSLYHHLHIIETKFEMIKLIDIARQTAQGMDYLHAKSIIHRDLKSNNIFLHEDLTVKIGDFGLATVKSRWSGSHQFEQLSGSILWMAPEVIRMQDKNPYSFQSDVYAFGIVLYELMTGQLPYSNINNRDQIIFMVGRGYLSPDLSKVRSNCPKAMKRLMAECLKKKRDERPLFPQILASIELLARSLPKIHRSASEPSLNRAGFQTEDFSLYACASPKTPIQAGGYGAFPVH
BRAF V660E, sequence (P15056 2-766 V600E): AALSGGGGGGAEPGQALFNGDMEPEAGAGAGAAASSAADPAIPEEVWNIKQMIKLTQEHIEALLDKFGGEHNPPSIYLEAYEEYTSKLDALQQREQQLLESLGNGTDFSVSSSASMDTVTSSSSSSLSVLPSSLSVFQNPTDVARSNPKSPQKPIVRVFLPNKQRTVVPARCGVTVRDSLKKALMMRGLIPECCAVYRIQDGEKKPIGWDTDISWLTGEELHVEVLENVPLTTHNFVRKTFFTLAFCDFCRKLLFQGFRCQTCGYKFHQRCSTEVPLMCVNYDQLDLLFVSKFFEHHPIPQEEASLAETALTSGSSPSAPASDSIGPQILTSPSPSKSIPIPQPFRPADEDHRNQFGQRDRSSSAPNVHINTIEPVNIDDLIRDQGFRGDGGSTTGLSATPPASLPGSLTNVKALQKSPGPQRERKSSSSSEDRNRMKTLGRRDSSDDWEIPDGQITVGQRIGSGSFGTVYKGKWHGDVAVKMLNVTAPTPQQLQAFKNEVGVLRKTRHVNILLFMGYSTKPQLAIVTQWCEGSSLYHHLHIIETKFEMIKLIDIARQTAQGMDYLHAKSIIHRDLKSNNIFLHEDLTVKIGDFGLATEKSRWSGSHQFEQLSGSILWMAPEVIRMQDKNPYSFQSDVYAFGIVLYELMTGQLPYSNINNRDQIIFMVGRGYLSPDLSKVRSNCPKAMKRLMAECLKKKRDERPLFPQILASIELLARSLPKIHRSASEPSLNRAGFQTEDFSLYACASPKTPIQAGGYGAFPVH

| Kd [1] [nM] | Kd [2] [nM] | IC50 [3] [nM] | EC50 [4] [nM] | Fold Selectivity HCT-116 EC50-50/ A375 [4] | Structure (SMILES) |
| --- | --- | --- | --- | --- | --- |
| 27.5 | 8.2 | 126 | 8870 | 70.7 | CC(=O)N[C@H]1CC[C@H](Nc2ncc3cc(-c4c(F)ccc(NS(=O)(=O)N5CC[C@@H](F)C5)c4F)c(=O)n(C)c3n2)C1 [Example 24, N-[(1S,3S)-3-[[6-[2,6-difluoro-3-[[(3R)-3-fluoropyrrolidin-1-yl]sulfonylamino]phenyl]-8-methyl-7-oxopyrido[2,3-d]pyrimidin-2-yl]amino]cyclopentyl]acetamide] |
| 47.4 | 15.1 | 13.1 | 917 | 69.8 | Cn1c(=O)c(-c2c(F)ccc(NS(=O)(=O)N3CC[C@@H](F)C3)c2F)cc2cnc(NCCCC(=O)OC(C)(C)C)nc21 [Example 3, tert-butyl 4-[[6-[2,6-difluoro-3-[[(3R)-3-fluoropyrrolidin-1-yl]sulfonylamino]phenyl]-8-methyl-7-oxopyrido[2,3-d]pyrimidin-2-yl]amino]butanoate] |
| 13.8 | 4.5 | 15 | 1550 | 103.6 | CC(=O)N1CCc2ccc(CCNc3ncc4cc(-c5c(F)ccc(NS(=O)(=O)N6CC[C@@H](F)C6)c5F)c(=O)n(C)c4n3)cc2C1 [Example 50, (3R)-N-[3-[2-[2-(2-acetyl-3,4-dihydro-1H-isoquinolin-7-yl)ethylamino]-8-methyl-7-oxopyrido[2,3-d]pyrimidin-6-yl]-2,4-difluorophenyl]-3-fluoropyrrolidine-1-sulfonamide] |
| 23 | 7.9 | 6 | 491 | 81.8 | Cn1c(=O)c(-c2c(F)ccc(NS(=O)(=O)N3CC[C@@H](F)C3)c2F)cc2cnc(NCCc3ccccc3)nc21 [Example 2, (3R)-N-[2,4-difluoro-3-[8-methyl-7-oxo-2-(2-phenylethylamino)pyrido[2,3-d]pyrimidin-6-yl]phenyl]-3-fluoropyrrolidine-1-sulfonamide] |
| 282 | 91.2 | 30.8 | 2170 | 70.5 | Cn1c(=O)c(-c2c(F)ccc(NS(=O)(=O)N3CC[C@@H](F)C3)c2F)cc2cnc(NC3CCCC3)nc21 [Example 7, (3R)-N-[3-[2-(cyclopentylamino)-8-methyl-7-oxopyrido[2,3-d]pyrimidin-6-yl]-2,4-difluorophenyl]-3-fluoropyrrolidine-1-sulfonamide] |
| 50.4 | 22.6 | 378 | 4840 | 12.8 | CC(=O)N1CCC(n2c(=O)c(-c3c(F)ccc(NS(=O)(=O)N4CC[C@@H](F)C4)c3F)cc3cnc(NCC4CC4)nc32)C1 (mixture of isomers) [Example 42, (3R)-N-[3-[8-((3RS)-1-acetylpyrrolidin-3-yl)-2-(cyclopropylmethylamino)-7-oxopyrido[2,3-d]pyrimidin-6-yl]-2,4-difluorophenyl]-3-fluoropyrrolidine-1-sulfonamide] |
| 107 | 37.7 | 790 | ≥ 10000 | 12.7 | Cl.Cn1c(=O)c(-c2c(F)ccc(NS(=O)(=O)N3CC[C@@H](F)C3)c2F)cc2cnc(NCCC3CCNCC3)nc21 [Example 14, (3R)—N-[2,4-difluoro-3-[8-methyl-7-oxo-2-(2-piperidin-4-ylethylamino)pyrido[2,3-d]pyrimidin-6-yl]phenyl]-3-fluoropyrrolidine-1-sulfonamide hydrochloride] |
| 37.5 | 19 | 9.9 | 645 | 65.1 | Cn1c(=O)c(-c2c(F)ccc(NS(=O)(=O)N3CC[C@@H](F)C3)c2F)cc2cnc(NCC3CC3)nc21 [Example 10, (3R)-N-[3-[2-(cyclopropylmethylamino)-8-methyl-7-oxopyrido[2,3-d]pyrimidin-6-yl]-2,4-difluorophenyl]-3-fluoropyrrolidine-1-sulfonamide] |
| 190 | 108 | 63.3 | 3360 | 53.1 | Cn1c(=O)c(-c2c(F)ccc(NS(=O)(=O)N3CC[C@@H](F)C3)c2F)cc2cnc(NCCC3CCN(C(=O)OC(C)(C)C)CC3)nc21 [Example 1, tert-Butyl 4-[2-[[6-[2,6-difluoro-3-[[(3R)-3-fluoropyrrolidin-1-yl]sulfonylamino]phenyl]-8-methyl-7-oxopyrido[2,3-d]pyrimidin-2-yl]amino]ethyl]piperidine-1-carboxylate] |
| 99 | 39.9 | 47.4 | ≥ 10000 | >211.0 | Cn1c(=O)c(-c2c(F)ccc(NS(=O)(=O)N3CC[C@@H](F)C3)c2F)cc2cnc(NCCOCCOCCO)nc21 [Example 4, (3R)-N-[2,4-difluoro-3-[2-[2-[2-(2-hydroxyethoxy)ethoxy]ethylamino]-8-methyl-7-oxopyrido[2,3-d]pyrimidin-6-yl]phenyl]-3-fluoropyrrolidine-1-sulfonamide] |
| 60.1 | 24.9 | 3170 | ≥ 10000 | >3.2 | CC(=O)N1CCC(NC(=O)CCCNc2ncc3cc(-c4c(F)ccc(NS(=O)(=O)N5CC[C@@H](F)C5)c4F)c(=O)n(C)c3n2)CC1 [Example 33, N-(1-acetylpiperidin-4-yl)-4-[[6-[2,6-difluoro-3-[[(3R)-3-fluoropyrrolidin-1-yl]sulfonylamino]phenyl]-8-methyl-7-oxopyrido[2,3-d]pyrimidin-2-yl]amino]butanamide] |
| 120 | 35.7 | 13.4 | 711 | 52.9 | Cn1c(=O)c(-c2c(F)ccc(NS(=O)(=O)N3CC[C@@H](F)C3)c2F)cc2cnc(NCCOc3ccccc3)nc21 [Example 6, (3R)-N-[2,4-difluoro-3-[8-methyl-7-oxo-2-(2-phenoxyethylamino)pyrido[2,3-d]pyrimidin-6-yl]phenyl]-3-fluoropyrrolidine-1-sulfonamide] |
| 441 | 159 | 71 | ≥ 10000 | >140.9 | CCN(C)S(=O)(=O)Nc1ccc(F)c(-c2cc3cnc(NCC4CC4)nc3n(C)c2=O)c1F [Example 11, 2-(cyclopropylmethylamino)-6-[3-[[ethyl(methyl)sulfamoyl]amino]-2,6-difluorophenyl]-8-methyl-7-oxopyrido[2,3-d]pyrimidine] |
